According to paper PMC10146558, “Highly Cytotoxic Copper(II) Mixed-Ligand Quinolinonato Complexes: Pharmacokinetic Properties and Interactions with Drug Metabolizing Cytochromes P450” (Pharmaceutics, 2023):
Values joined by “and” are separate entries in the source; they are usually repeats but may differ in a detail not shown here. Equal values may be shown once.

Legend:
[1] = Chemical stability (stability in PBS); format: physicochemical; details: 1 × PBS pH 7.4, 37 °C, 7.4 µM
Protocol: (§1) Pharmacological properties of the complexes 1 and 2, including stability in plasma, microsomal stability, binding to plasma proteins, and permeability through an artificial membrane, were tested under in vitro conditions and according to methods described in previous reports. Analysis of the samples was performed using Agilent RapidFire 300 High-Throughput Mass Spectrometry System (Agilent Technologies, Wakefield, MA, USA) with subsequent detection using the mass spectrometer Qtrap 5500 (AB Sciex, Concord, Toronto, ON, Canada), abbreviation RF-MS. The samples were aspirated directly from the plates into a 10 μL sample loop and passed through a C4 cartridge with solvent A (5% acetonitrile, 95% water, 0.1% formic acid) at a flow rate of 1.5 mL/min for 3 s. After the desalting step, analytes retained on the cartridge were eluted with solvent B (95% acetonitrile, 5% water, 0.1% formic acid) in the mass spectrometer at a flow rate of 0.4 mL/min for 5 s. The mass spectrometry of the samples was carried out using electrospray ionisation in the positive ion mode. Daughter ion peaks were identified using a multiple-reaction monitoring protocol.
The reaction was terminated by ice-cold methanol (chemical stability) or acetonitrile:methanol (2:1), and samples were left at −80 °C overnight (plasma stability). The solution was mixed and centrifuged (4000 rpm, 9 min, 4 °C). After lyophilization of supernatant, samples were dissolved in mobile phase with internal standard and analysed by RF/MS analysis.

plasma proteins = experiment: Plasma protein binding (rapid equilibrium dialysis); format: in vitro ADME, human; details: 10 μM in 50% plasma, 37 °C, 4 h
Protocol: as §1, with “The mass spectrometry of the samples was carried out using electrospray ionisation in the positive ion mode. Daughter ion peaks were identified using a multiple-reaction monitoring protocol.” left out
The fraction bound value was determined using the semipermeable membrane that separates a protein-containing compartment (R chamber) from a protein-free compartment (W chamber) (Rapid Equilibrium Dialysis, Thermo Scientific™, Rockford, IL, USA). […] Samples were dissolved in mobile phase containing internal standard and analysed on the RF/MS.

human bactosomes CYP1A2 = molecular target: T1, human bactosomes CYP1A2 (Homo sapiens, UniProt P05177); experiment: Isothermal titration calorimetry, bactosomes CYP1A2; format: binding; details: 25 °C, 100 mM phosphate buffer pH 7.4, 1% DMSO
T1 construct: purchased BD Biosciences (Franklin Lakes, NJ, USA); host or cells: bacterial membranes ('bactosomes')
T1 sequence (P05177 1-516): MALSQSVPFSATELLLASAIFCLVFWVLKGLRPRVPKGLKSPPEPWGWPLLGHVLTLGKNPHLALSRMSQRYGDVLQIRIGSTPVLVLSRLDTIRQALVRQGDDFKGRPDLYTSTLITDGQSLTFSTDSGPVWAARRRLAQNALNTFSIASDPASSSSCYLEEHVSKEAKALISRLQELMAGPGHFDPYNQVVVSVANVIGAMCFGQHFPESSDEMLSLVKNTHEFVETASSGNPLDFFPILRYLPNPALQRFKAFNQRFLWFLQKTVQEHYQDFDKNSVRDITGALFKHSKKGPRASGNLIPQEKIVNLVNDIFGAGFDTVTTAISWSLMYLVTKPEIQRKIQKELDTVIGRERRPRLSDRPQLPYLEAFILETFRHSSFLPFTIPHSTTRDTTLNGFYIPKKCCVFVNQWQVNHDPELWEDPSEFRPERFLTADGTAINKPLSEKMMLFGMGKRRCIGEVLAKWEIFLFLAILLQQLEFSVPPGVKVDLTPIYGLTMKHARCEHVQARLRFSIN
Protocol: (§2) The interactions of the compounds with selected forms of cytochrome P450, i.e., human bactosomes CYP1A2, CYP2A6, CYP3A4, and recombinant human CYP3A4, were studied using isothermal titration calorimetry (ITC). ITC experiments were performed at 25 °C with a Nano ITC Low Volume (TA Instruments, New Castle, DE, USA). During all measurements, 20 injections of 16µM of the studied compound (2.5 µL each) were titrated into 250 µL of protein (2 µM) with time intervals of 300 s and a stirring speed of 250 rpm. All ITC experiments were conducted with degassed buffered solutions (100 mM phosphate buffer, pH 7.4) in the presence of 1% DMSO. Control experiments included the titration of each complex solution into a buffer. The corrected data refer to experimental data after subtraction of the buffer control data from the compounds data. The resulting thermograms were analysed using the “Independent” model within the NanoAnalyze software (TA Instruments, New Castle, DE, USA).

human bactosomes CYP2A6 = molecular target: T2, human bactosomes CYP2A6 (Homo sapiens, UniProt P11509); experiment: Isothermal titration calorimetry, bactosomes CYP2A6; format: binding; details: 25 °C; for n, CYP2A6B: ITC stoichiometry, pH 7.4; for Ka, CYP2A6B / ΔG, CYP2A6B / ΔH, CYP2A6B / ΔS, CYP2A6B / Kd: ITC, pH 7.4, 1% DMSO; for Kd: read-out: Kd, CYP2A6B
T2 construct: purchased BD Biosciences (Franklin Lakes, NJ, USA); host or cells: bacterial membranes ('bactosomes')
T2 sequence (P11509 1-494): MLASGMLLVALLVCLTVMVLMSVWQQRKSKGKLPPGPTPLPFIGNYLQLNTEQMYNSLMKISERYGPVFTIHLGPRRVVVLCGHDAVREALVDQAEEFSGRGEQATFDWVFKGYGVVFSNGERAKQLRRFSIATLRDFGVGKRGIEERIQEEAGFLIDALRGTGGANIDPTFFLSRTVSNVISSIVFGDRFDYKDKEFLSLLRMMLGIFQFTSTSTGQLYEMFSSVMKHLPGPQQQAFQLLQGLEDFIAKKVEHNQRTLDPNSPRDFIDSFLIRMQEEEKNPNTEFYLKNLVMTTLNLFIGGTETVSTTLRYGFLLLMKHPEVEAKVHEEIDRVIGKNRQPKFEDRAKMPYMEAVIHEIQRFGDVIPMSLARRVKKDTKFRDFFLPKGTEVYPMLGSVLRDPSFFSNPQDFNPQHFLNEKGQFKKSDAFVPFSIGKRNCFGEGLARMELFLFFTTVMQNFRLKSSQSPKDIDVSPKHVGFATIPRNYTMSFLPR
Protocol: as §2

CYP3A4 [2] = molecular target: T3, CYP3A4 (Homo sapiens, UniProt P08684); experiment: Isothermal titration calorimetry, recombinant human CYP3A4; format: binding; parameters: purchased Sigma-Aldrich (Prague, Czech Republic); details: recombinant human CYP3A4, 25 °C; for n, CYP3A4: ITC stoichiometry, pH 7.4; for Ka, CYP3A4 / Kd / ΔG, CYP3A4 / ΔH, CYP3A4 / ΔS, CYP3A4: ITC, pH 7.4, 1% DMSO
Protocol: as §2
Target sequence in this assay (P08684 whole entry): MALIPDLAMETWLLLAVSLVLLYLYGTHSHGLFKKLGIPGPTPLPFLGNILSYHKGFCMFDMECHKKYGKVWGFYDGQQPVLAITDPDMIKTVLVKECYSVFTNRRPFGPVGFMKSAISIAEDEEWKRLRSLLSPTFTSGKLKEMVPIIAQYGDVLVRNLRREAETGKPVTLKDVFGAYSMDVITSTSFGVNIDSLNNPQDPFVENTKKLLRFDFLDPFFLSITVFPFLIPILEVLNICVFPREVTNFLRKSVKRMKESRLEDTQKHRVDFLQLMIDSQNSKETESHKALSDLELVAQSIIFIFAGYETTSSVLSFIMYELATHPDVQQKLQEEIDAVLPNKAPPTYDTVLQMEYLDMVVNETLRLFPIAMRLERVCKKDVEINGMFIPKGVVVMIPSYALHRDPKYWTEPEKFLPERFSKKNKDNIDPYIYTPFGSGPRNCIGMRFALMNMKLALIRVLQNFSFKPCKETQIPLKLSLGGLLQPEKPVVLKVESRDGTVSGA

CYP3A4 [3] = molecular target: T3, CYP3A4; experiment: CYP3A4 activity (midazolam 1′-hydroxylation) in human liver microsomes; details: read-out: IC50 CYP3A4 (midazolam 1′-hydroxylation assay); human liver microsomes
Target sequence in this assay (P08684 2-503): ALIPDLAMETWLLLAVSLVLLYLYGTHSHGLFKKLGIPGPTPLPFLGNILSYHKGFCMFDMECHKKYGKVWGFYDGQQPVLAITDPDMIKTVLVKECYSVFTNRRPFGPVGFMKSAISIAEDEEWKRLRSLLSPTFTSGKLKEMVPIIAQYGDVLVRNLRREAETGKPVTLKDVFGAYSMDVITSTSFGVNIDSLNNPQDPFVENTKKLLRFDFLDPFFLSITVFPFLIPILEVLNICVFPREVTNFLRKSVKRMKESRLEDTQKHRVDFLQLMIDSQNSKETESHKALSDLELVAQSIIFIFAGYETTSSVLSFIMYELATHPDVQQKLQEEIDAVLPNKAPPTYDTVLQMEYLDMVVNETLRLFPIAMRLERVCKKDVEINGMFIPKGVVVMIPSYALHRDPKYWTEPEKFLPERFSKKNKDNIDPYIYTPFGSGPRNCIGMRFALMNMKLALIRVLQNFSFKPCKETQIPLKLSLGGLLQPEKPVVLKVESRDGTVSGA
Protocol: For each enzyme assay, the preliminary experiments to determine Michaelis constant (Km) and limiting velocity (Vmax) were performed to calculate the time of incubation (the specified time for which the reaction is still linear) and the values of substrate concentration (in the range corresponding to the value of Km).
The reaction mixtures were buffered by 0.1 M potassium phosphate buffer (pH 7.4) and contained a NADPH-generating system consisting of the isocitrate dehydrogenase (6 U/mL), NADP^+ (0.5 mM), isocitric acid (4 mM), and MgSO4 (5 mM). The final concentration levels of complexes were obtained by diluting a 10 mM solution with dimethyl sulfoxide (DMSO). It is known that DMSO can in some cases inhibit P450; the following measures were thus applied: (a) control samples containing organic solvent without the tested compounds were prepared and used as references; (b) DMSO levels were maintained below 0.1% to minimise the inhibition. Inhibition experiments were performed using five concentration levels of the tested compounds in the range of 10–100 µM. The maximum concentration was chosen so that in the case of inhibition, it would be possible to determine the inhibitory effect of the complexes and characterise them by determining the IC50 value. Additionally, an inhibitor-free control was used as a reference. Incubations were executed in two independent batches, and the samples were prepared and measured in triplicate at 37 °C. Analyses of the metabolites formed from the specific substrates were performed by HPLC using the Prominence system (Shimadzu, Kyoto, Japan) equipped with a LiChroCART 250-4 LiChrospher 100 RP-18 column, Chromolith® HighResolution RP-18 end-capped column (Merck, Darmstadt, Germany), or Kinetex Biphenyl column (Phenomenex, Torrace, CA, USA).
The apparent Ki values were determined by additional measurements using substrate concentrations corresponding to 1/2 Km, Km, 2 Km, and 4 Km in the case of inhibition. The type of model was selected on the basis of the Lineweaver–Burk and Dixon plots. The values of IC50 were obtained by analysing the plot of the percentage of activity remaining after inhibition versus the logarithm of the inhibitor concentration using the GraphPad Prism 6 software (La Jolla, CA, USA).

SMILES | % Compound Remaining, Chemical Stability, 15 min [1] [%] | % Compound Remaining, Chemical Stability, 30 min [1] [%] | % Compound Remaining, Chemical Stability, 60 min [1] [%] | % Compound Remaining, Chemical Stability, 120 min [1] [%] | Plasma protein binding, % Fraction bound (plasma proteins) | ITC interaction with CYP1A2B (human bactosomes CYP1A2) | n, CYP2A6B (human bactosomes CYP2A6) | Ka, CYP2A6B (human bactosomes CYP2A6) [M⁻¹] | ΔG, CYP2A6B (human bactosomes CYP2A6) | ΔH, CYP2A6B (human bactosomes CYP2A6) [kcal/mol] | ΔS, CYP2A6B (human bactosomes CYP2A6) [J/mol.K] | Kd (human bactosomes CYP2A6) [nM] | n, CYP3A4 (CYP3A4 [2]) | Ka, CYP3A4 (CYP3A4 [2]) [M⁻¹] | Kd (CYP3A4 [2]) [nM] | ΔG, CYP3A4 (CYP3A4 [2]) | ΔH, CYP3A4 (CYP3A4 [2]) [kcal/mol] | ΔS, CYP3A4 (CYP3A4 [2]) [J/mol.K] | IC50 (CYP3A4 [3]) [nM]
Cc1cc2cccnc2c2ncccc12.F[B-](F)(F)F.O.O=c1c([O-])c(-c2ccccc2)[nH]c2ccccc12.[Cu+2] [complex 2] | 99.6 ± 3.0 | 96.8 ± 2.4 | 94.0 ± 3.3 | 96.6 ± 2.4 | 93% and 92.9 ± 1.5% | no interaction | 1.071 | 3.12e+06 | −37,070.9 J/mol | -5.507 | 47.06 | 321 | 1.095 | 1.59e+07 | 62.9 | -1.3352 kcal/mol | -12.37 | −154.9 | 33000 ± 1130
Cc1cc2cccnc2c2ncccc12.O.O=[N+]([O-])[O-].O=c1c([O-])c(-c2ccccc2)[nH]c2ccccc12.[Cu+2] [complex 1] | 99.6 ± 3.6 | 99.9 ± 1.5 | 97.8 ± 3.4 | 96.6 ± 3.4 | 95% and 95.1 ± 1.0% | no interaction | 0.801 | 1.04e+06 | −40,050.9 J/mol | -7.603 | 27.64 | 962 | 1.171 | 1.3e+07 | 76.9 | −34,899.9 J/mol | -21.05 | −178.3 | 28800 ± 2550
